Where two headings read alike, the source gives them in different places.
How the values were obtained:
[1] = Metabolism studies using human liver microsomal preparations; type: in vitro ADME; conditions: for HLMs Predominant Enzyme: comparison of half life with and without NADPH: Esterase, CYP or Mixed; for half-life: pH 7.4, pooled human liver microsomes, with NADPH (CYP system active), 37° C., read-out: HLMs t1/2
Procedure: Compounds were incubated in pooled human liver microsomes (HLMs) in the presence or absence of an NADPH-generating system. NADPH is required for the activity of cytochrome P450 (CYP) and other oxidative enzymes present in HLMs, but not for esterase activity. An additional incubation was carried out in the absence of HLM to assess compound stability. The disappearance of parent and the appearance of the corresponding acid metabolite were monitored over the time course of the incubations using LC-MS/MS.
A stock solution (20 mM) of each proprietary compound in DMSO was prepared and store at −20° C. until needed. A working stock solution (0.2 mM) was prepared for each proprietary compound by adding an aliquot of the stock solution (10 μL) to acetonitrile (990 μL).
An aliquot of the HLM solution was removed from the −80° C. freezer and placed on ice. Tris Buffer (50 mM, pH 7.4) containing MgCl2 (hexahydrate, 5 mM) was pre-incubated in a 37° C. water bath. A set of Eppendorf microfuge tubes (1.5 mL) was appropriately labeled. To each tube was added Tris buffer with or without the NADPH generating system. An aliquot of pooled HLMs was added to all the incubations except those that were the buffer control.
Tubes were preincubated for 5 min in a shaking incubator bath (37° C., 900 rpm) and the reaction was initiated by adding an aliquot of the proprietary working solution (5 μL). The additions were timed carefully in order to coordinate the sample collections below. A small aliquot (50 μL) was removed at […] and delivered to the respective tubes containing dextrorphan (100 μL of 0.5 μg/mL solution) in dissolved in methanol or acetonitrile. The samples were centrifuged at 14000 g for 15 minutes at 4° C. The supernatant was transferred to clean labeled HPLC injection vials and stored at −80° C. until analyzed. An aliquot of the supernatant […] was added to water (75 μL), mixed and injected onto the LC-MS/MS system for analysis.
“HLM t1/2” represents the observed half life of the compound under conditions that included NADPH, i.e., the CYP system was active. Comparison to the half life of the test article under (−)NADPH conditions, the enzyme predominant ly responsible for the metabolism of the test article. […] Where roughly equal metabolism is seen by each enzyme system, “mixed” is noted in the “Predominant enzyme” column.

pig liver esterase = test: Metabolism studies using pig liver esterase; type: in vitro ADME; conditions: 37° C.
Procedure: The esterase-mediated metabolism of these compounds was studied using commercially available pig liver esterase in the presence and absence of human plasma proteins. The disappearance of parent was monitored over the time course of the incubations using a LC-UV detection system.
A stock solution and working stock solution was prepared for each proprietary compound as described for the human liver microsomal incubations. Working solutions of pig liver esterase in potassium phosphate buffer ([…], pH 7.4) and pig liver esterase in human plasma protein were prepared by dissolving pig liver esterase (2.51 mg) in the phosphate buffer or plasma protein solutions, respectively.
A set of three Eppendorf microfuge tubes (1.5 mL) was appropriately labeled. To each tube was added 1.5 mL of phosphate buffer, pig liver esterase in buffer, or pig liver esterase in human plasma protein solution. These solutions were pre-incubated (37° C., 900 rpm) and the reactions were initiated by adding an aliquot (37.5 μL) of the working solution of proprietary compound to each tube. An aliquot (100 μL) from each tube was removed at time 0, 5, 30, 60, and 120 min and added to a tube containing acetonitrile (200 μL) to stop the reaction.
The samples were centrifuged at 14000 g for 15 minutes at 4° C. The supernatant was transferred to clean labeled HPLC injection vials and stored at −80° C. until analyzed. An aliquot of the supernatant (25 μL) was injected onto the LC-UV system for analysis.
Half lives of a sample of test articles is noted in the following table. Half life was determined in the presence or absence of plasma.

Gal-4 hPPARα = biological target: T1, Gal-4 hPPARα (Homo sapiens, UniProt Q07869); test: Gal4-hPPARα transient transfection reporter assay in Cos cells; type: cell-based; conditions: luciferase reporter, 24 hours with compound, scale 1-5, read-out: Gal-4 hPPAR α EC50 (scaled number)
T1 construct: Plasmids pGal4-hPPARα, pGal4-hPPARγ, pGal4-hPPARδ and pG5-TK-pGL3 were constructed as previously described by Staels, Bart, et al., Nature 1998 Jun; 25
T1 sequence (Q07869 200-468 limits assumed): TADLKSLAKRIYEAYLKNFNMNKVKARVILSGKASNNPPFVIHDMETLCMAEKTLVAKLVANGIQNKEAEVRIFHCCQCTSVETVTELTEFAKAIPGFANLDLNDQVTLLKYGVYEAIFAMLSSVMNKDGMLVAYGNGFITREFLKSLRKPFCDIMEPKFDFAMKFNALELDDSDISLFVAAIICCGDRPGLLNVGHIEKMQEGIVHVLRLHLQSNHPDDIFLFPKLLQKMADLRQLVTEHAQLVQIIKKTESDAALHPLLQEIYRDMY
Procedure: (§1) Construction of recombinant plasmids. Plasmids pGal4-hPPARα, pGal4-hPPARγ, pGal4-hPPARδ and pG5-TK-pGL3 were constructed as previously described by Staels, Bart, et al., Nature 1998 Jun. 25; 393 (6687): 790-793, by Staels (Institut Pasteur de Lille, FR).
(§2) Transient transfection assays. Cos cells were seeded in 60-mm dishes at a density of 5.5×10^5 cells/dish in Dulbecco's modified Eagle's medium (DMEM) supplemented with 10% fetal calf serum (FCS) and incubated at 37° C. for 24 hours before transfection. Cells were transfected in Opti-MEM (Gibco; Invitrogen, Carlsbad, Calif.) without FCS for 3 hours at 37° C., using polyethylenimine, with reporter and expression plasmids. The plasmid pBluescript (Stratagene, La Jolla, Calif.) was used as carrier DNA to set the final amount of DNA to 5.5 μg/dish. The pCMV-b-galactosidase expression plasmid was cotransfected as a control for transfection efficiency. Transfection was stopped by the addition of DMEM supplemented with 10% FCS, and cells were then incubated at 37° C. After 16 hours, cells were trypsinized and seeded in 96-well plates at the density of 2×10^4 cells/well and incubated for 6 hours in 10% FCS-containing DMEM. Cells were then incubated for 24 hours in DMEM containing 0.2% FCS and increasing concentrations of the compound tested or vehicle (DMSO). At the end of the experiment, cells were washed once with ice-cold PBS, lysed and the luciferase and b-galactosidase assays were performed in a luminometer and spectrophotomer. Transfection efficiencies were normalized with the b-galactosidase activity assay. Half-maximal effective concentration (EC50) was estimated using Prism software (GraphPad). All transfection experiments were performed at least three times.
(§3) In the following tables, proprietary compound EC50 values for hPPAR α, β, δ and γ are shown. The EC50 value is the concentration of a drug that induces a response halfway between the baseline and maximum, and is commonly used as a measure of drug potency. EC50 values are reported on a scale of 1 through 5, wherein the value scale is defined for each receptor as follows: […]

Gal-4 hPPARβ/δ = biological target: T2, Gal-4 hPPARβ/δ (Homo sapiens, UniProt Q03181); test: Gal4-hPPARδ transient transfection reporter assay in Cos cells; type: cell-based; conditions: luciferase reporter, 24 hours with compound, scale 1-5, read-out: Gal-4 hPPAR β/δ EC50 (scaled number)
T2 construct: Plasmids pGal4-hPPARα, pGal4-hPPARγ, pGal4-hPPARδ and pG5-TK-pGL3 were constructed as previously described by Staels, Bart, et al., Nature 1998 Jun; 25
T2 sequence (Q03181 171-441 limits assumed): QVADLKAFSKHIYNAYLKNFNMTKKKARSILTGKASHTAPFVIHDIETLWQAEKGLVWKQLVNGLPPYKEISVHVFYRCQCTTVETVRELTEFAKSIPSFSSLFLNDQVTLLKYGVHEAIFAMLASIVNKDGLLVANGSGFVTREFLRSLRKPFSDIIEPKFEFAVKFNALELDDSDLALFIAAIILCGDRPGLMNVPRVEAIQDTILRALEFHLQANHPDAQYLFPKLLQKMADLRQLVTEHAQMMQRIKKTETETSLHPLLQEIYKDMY
Procedure: as §1, §2, §3

Gal-4 hPPARγ = biological target: T3, Gal-4 hPPARγ (Homo sapiens, UniProt P37231); test: Gal4-hPPARγ transient transfection reporter assay in Cos cells; type: cell-based; conditions: luciferase reporter, 24 hours with compound, scale 1-5, read-out: Gal-4 hPPAR γ EC50 (scaled number)
T3 construct: Plasmids pGal4-hPPARα, pGal4-hPPARγ, pGal4-hPPARδ and pG5-TK-pGL3 were constructed as previously described by Staels, Bart, et al., Nature 1998 Jun; 25
T3 sequence (P37231 238-505 limits assumed): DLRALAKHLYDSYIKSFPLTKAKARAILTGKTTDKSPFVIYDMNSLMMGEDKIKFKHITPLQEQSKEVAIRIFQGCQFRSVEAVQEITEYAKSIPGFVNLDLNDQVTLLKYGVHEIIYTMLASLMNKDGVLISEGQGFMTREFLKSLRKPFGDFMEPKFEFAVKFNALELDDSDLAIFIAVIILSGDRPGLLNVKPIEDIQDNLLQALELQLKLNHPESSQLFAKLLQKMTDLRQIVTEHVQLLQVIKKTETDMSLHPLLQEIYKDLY
Procedure: as §1, §2, §3

[2] = pig liver esterase in human plasma protein solution, read-out: Pig Liver Esterase (t1/2 min.) (+) Plasma
[3] = pig liver esterase in phosphate buffer pH 7.4, no plasma, read-out: Pig Liver Esterase (t1/2 min.) (−) Plasma

Row | Structure (SMILES) | HLMs Predominant Enzyme [1] | half-life [1] [min] | half-life at 4.9 µM (pig liver esterase; [2]) [min] | half-life at 4.9 µM (pig liver esterase; [3]) [min] | EC50 (Gal-4 hPPARα) [nM] | EC50 (Gal-4 hPPARβ/δ) [nM] | EC50 (Gal-4 hPPARγ) [nM]
1 | CCCn1c(COC(=O)c2ccc(OC(C)(C)C(=O)O)cc2)nn(Cc2cc(C(F)(F)F)cc(C(F)(F)F)c2)c1=O [Compound 206, 2-(4-(((1-(3,5-bis(trifluoromethyl)benzyl)-5-oxo-4-propyl-4,5-dihydro-1H-1,2,4-triazol-3-yl)methoxy)carbonyl)phenoxy)-2-methylpropanoic acid] | – | – | – | – | 201 to 999 | > 1000 | > 1000
2 | CC(C)(Sc1ccc(C(=O)OCc2cnn(Cc3cccc(C(F)(F)F)c3)c2)cc1)C(=O)O [Compound 30, 2-methyl-2-(4-(((1-(3-(trifluoromethyl)benzyl)-1H-pyrazol-4-yl)methoxy)carbonyl)phenylthio)propanoic acid] | – | – | – | – | 1 to 50 | > 1000 | > 1000
3 | CCn1c(COC(=O)c2ccc(SC(C)(C)C(=O)O)cc2)nn(Cc2ccc(C)cc2)c1=O [Compound 193, 2-(4-(((4-ethyl-1-(4-methylbenzyl)-5-oxo-4,5-dihydro-1H-1,2,4-triazol-3-yl)methoxy)carbonyl)phenylthio)-2-methylpropanoic acid] | – | – | – | – | 51 to 200 | > 1000 | > 1000
4 | C[C@H](OC(=O)c1ccc(SC(C)(C)C(=O)O)cc1)c1cn(Cc2ccc(C(F)(F)F)cc2)nn1 [Compound 97, (S)-2-methyl-2-(4-((1-(1-(4-(trifluoromethyl)benzyl)-1H-1,2,3-triazol-4-yl)ethoxy)carbonyl)phenylthio)propanoic acid] | – | – | – | – | 201 to 999 | > 1000 | > 1000
5 | Cc1ccc(Cn2nc(COC(=O)c3ccc(SC(C)(C)C(=O)O)cc3)[nH]c2=O)cc1 [Compound 261, 4-(1-Carboxy-1-methyl-ethylsulfanyl)-benzoic acid 1-(4-methyl-benzyl)-5-oxo-4,5-dihydro-1H-1,2,4-triazol-3-ylmethyl ester] | – | – | – | – | 51 to 200 | > 1000 | > 1000

Second part, the compound after the results:

Row | HLMs Predominant Enzyme [1] | half-life [1] [min] | half-life at 4.9 µM (pig liver esterase; [2]) [min] | half-life at 4.9 µM (pig liver esterase; [3]) [min] | EC50 (Gal-4 hPPARα) [nM] | EC50 (Gal-4 hPPARβ/δ) [nM] | EC50 (Gal-4 hPPARγ) [nM] | Structure (SMILES)
6 | Esterase | 5 | 16 | < 1 | – | – | – | CCCn1nc(Cc2ccc(C)cc2)cc1COC(=O)c1ccc(SC(C)(C)C(=O)O)cc1 [Compound 55, 4-(1-Carboxy-1-methyl-ethylsulfanyl)-benzoic acid 5-(4-methyl-benzyl)-2-propyl-2H-pyrazol-3-ylmethyl ester]
7 | Mixed | 29 | – | – | 1 to 50 | > 1000 | > 1000 | C[C@@H](Cc1cn(Cc2ccc(C(C)(C)C)cc2)nn1)OC(=O)c1ccc(SC(C)(C)C(=O)O)cc1 [Compound 133, 4-(1-Carboxy-1-methyl-ethylsulfanyl)-benzoic acid (S)-2-[1-(4-tert-butyl-benzyl)-1H-1,2,3-triazol-4-yl]-1-methyl-ethyl ester]
8 | Esterase | 10 | 17 | < 5 | – | – | – | CCCn1c(COC(=O)c2ccc(OC(C)(C)C(=O)O)cc2)nn(Cc2ccc(C(=O)O[C@H](C)C(F)(F)C(F)(F)F)cc2)c1=O [Compound 174, (R)-2-methyl-2-(4-(((5-oxo-1-(4-((3,3,4,4,4-pentafluorobutan-2-yloxy)carbonyl)benzyl)-4-propyl-4,5-dihydro-1H-1,2,4-triazol-3-yl)methoxy)carbonyl)phenoxy)propanoic acid]
9 | – | – | – | – | 1 to 50 | > 1000 | 51 to 200 | C[C@@H](OC(=O)c1ccc(SC(C)(C)C(=O)O)cc1)c1cn(Cc2ccc(SC(F)(F)F)cc2)nn1 [Compound 136, 4-(1-Carboxy-1-methyl-ethylsulfanyl)-benzoic acid (R)-1-[1-(4-trifluoromethylsulfanyl-benzyl)-1H-1,2,3-triazol-4-yl]-ethyl ester]
10 | – | – | – | – | 51 to 200 | > 1000 | > 1000 | CC(C)(Sc1ccc(C(=O)OCc2cn(Cc3ccc(C(F)(F)F)cc3)nn2)cc1)C(=O)O [Compound 102, 2-methyl-2-(4-(((1-(4-(trifluoromethyl)benzyl)-1H-1,2,3-triazol-4-yl)methoxy)carbonyl)phenylthio)propanoic acid]

Reference: US20100184815A1 (priority 2008, published 2010)
